Data published in patent US9433621B2, “Substituted pyridine and pyrimidine derivatives and their use in treating viral infections” (Merck Sharp & Dohme Corp., priority 2010, dated 2016).

test system: HCV replicon; experiment: Cell-Based HCV Replicon Assay; conditions: Hepatitis C virus, 72 h; Table IV; replicon cells, day 3, real time PCR; EC90 = concentration for ΔCT=3.2 over baseline; read-out: EC90
Description: Cell-Based HCV Replicon Assay
To measure cell-based anti-HCV activity of the compounds of the present invention, replicon cells were seeded at 5000 cells/well in 96-well collagen I-coated Nunc plates in the presence of the compound of the invention. Various concentrations of a compound of the invention, typically in 10 serial 2-fold dilutions, were added to the assay mixture, the starting concentration of the compound ranging from 25 μM to 1 μM. The final concentration of DMSO was 0.5%, fetal bovine serum was 10%, in the assay media. Cells were harvested on day 3 by the addition of 1× cell lysis buffer (Ambion cat #8721). The replicon RNA level was measured using real time PCR (Taqman assay). The amplicon was located in 5B. The PCR primers were: 5B.2F, ATGGACAGGCGCCCTGA; 5B.2R, […]; the probe sequence was FAM-labeled CACGCCATGCGCTGCGG. GAPDH RNA was used as endogenous control and was amplified in the same reaction as NS5B (multiplex PCR) using primers and VIC-labeled probe recommended by the manufacturer (PE Applied Biosystem). The real-time RT-PCR reactions were run on ABI PRISM® 7900HT Sequence Detection System using the following program: 48′C for 30 min, 95′C for 10 min, 40 cycles of 95′C for 15 sec, 60′C for 1 min. The ΔCT values (CT5B-CTGAPDH) were plotted against the concentration of test compound and fitted to the sigmoid dose-response model using Graph Pad PRISM® software. EC50 was defined as the concentration of inhibitor necessary to achieve ΔCT=1 over the projected baseline; EC90 the concentration necessary to achieve ΔCT=3.2 over the baseline. Alternatively, to quantitate the absolute amount of replicon RNA, a standard curve was established by including serially diluted T7 transcripts of replicon RNA in the Taqman assay. All Taqman reagents were from PE Applied Biosystems. Such an assay procedure was described in detail in e.g. Malcolm et al., Antimicrobial Agents and Chemotherapy 50: 1013-1020 (2006).
HCV Replicon assay data for compounds of the invention that were tested were obtained using the above method.

**Q.** How did the EC90 turn out when Cc1nc(NC[C@H]2C[C@@H](c3ccccc3)C2)nc(N[C@@H]2C[C@H](CO)[C@@H](O)[C@H]2O)c1-c1nc2cnccc2s1 [Example 4512] was run?
**A.** The EC90 was 0.019 µM.

**Q.** Which EC90 does the source give for Cc1nc(NCC2CC(F)(F)C2)nc(N[C@@H]2C[C@H](C(C)(C)O)[C@@H](O)[C@H]2O)c1-c1nc2c(C)nccc2s1 [Example 3239] here?
**A.** The EC90 was 0.01 µM.

**Q.** Cc1nc(NCc2c(F)cc(F)cc2F)nc(N[C@@H]2C[C@H](C(C)(C)O)[C@@H](O)[C@H]2O)c1-c1nc2c(C)nccc2s1 [Example 3188] was tested. Which EC90 did it give?
**A.** Its EC90 is 0.021 µM.

**Q.** How did the EC90 turn out when Cc1cc2sc(-c3c(C)nc(NCc4c(F)cc(F)cc4F)nc3N[C@@H]3C[C@H](CO)[C@@H](O)[C@H]3O)nc2c(C)n1 [Example 3438] was run?
**A.** The EC90 was 0.011 µM.

same assay, conditions: Hepatitis C virus, 72 h; Table V, class codes; replicon cells, day 3, real time PCR; EC90 = concentration for ΔCT=3.2 over baseline; read-out: EC90 (uM) range

**Q.** Cc1cc2sc(-c3c(C)nc(NCC4CC4)nc3N[C@@H]3C[C@H](CO)[C@@H](O)[C@H]3O)nc2cn1 [Example 4909] was tested. Which EC90 did it give?
**A.** The EC90 was under 0.5 µM.

**Q.** For Cc1nc(NCC2CC2)nc(N[C@@H]2C[C@H](C(=O)Nc3ccncc3)[C@@H](O)[C@H]2O)c1-c1nc2c(C3CC3)nccc2s1 [Example 4957], which EC90 is on record?
**A.** The EC90 was under 0.5 µM.

**Q.** How did the EC90 turn out when CO[C@@H]1[C@@H](CO)C[C@@H](Nc2nc(NCC(F)(F)F)nc(C)c2-c2nc3c(C)nccc3s2)[C@@H]1O [Example 4905] was run?
**A.** The EC90 was under 0.5 µM.

**Q.** How did the EC90 turn out when Cc1nc(NCC2CC2)nc(N[C@@H]2C[C@H](C(=O)N3CCOCC3)[C@@H](O)[C@H]2O)c1-c1nc2c(C3CC3)nccc2s1 [Example 4924] was run?
**A.** Its EC90 is under 0.5 µM.

**Q.** Cc1nc(N)nc(N[C@@H]2C[C@H](C(=O)Nc3ccccc3)[C@@H](O)[C@H]2O)c1-c1nc2c(C3CC3)nccc2s1 [Example 4948] was tested. Which EC90 did it give?
**A.** Its EC90 is under 0.5 µM.

**Q.** COCCNc1nc(C)c(-c2nc3c(C4CC4)nccc3s2)c(N[C@@H]2C[C@H](C(=O)Nc3ccncc3)[C@@H](O)[C@H]2O)n1 [Example 4956] was tested. Which EC90 did it give?
**A.** The EC90 was under 0.5 µM.

**Q.** With Cc1nc(N)nc(N[C@@H]2C[C@H](CO)[C@@H](O)[C@H]2O)c1-c1nc2cnc(C3CC3)cc2s1 [Example 4945] as the molecule, how does the EC90 read?
**A.** Its EC90 is under 0.5 µM.

same assay, conditions: Hepatitis C virus; HCV Replicon assay, EC90 given as numeric bound, Table VI; read-out: EC90

**Q.** Which EC90 does the source give for Cc1nc(NC2(CS(=O)(=O)C(C)(C)C)CCCCC2)nc(N[C@@H]2C[C@H](C(C)(C)O)[C@@H](O)[C@H]2O)c1-c1nc2c(C)nccc2s1 [Example 5197] here?
**A.** The EC90 was over 1 µM.

same assay, conditions: Hepatitis C virus; HCV Replicon assay, EC90 range, Table VI; read-out: EC90

**Q.** Cc1cc(S(=O)(=O)C[C@H]2C[C@@H](Nc3nc(NC4CC4)nc(C)c3-c3nc4c(C)nccc4s3)[C@H](O)[C@@H]2O)ccc1F [Example 5002] was tested. Which EC90 did it give?
**A.** Its EC90 is under 0.5 µM.

**Q.** Cc1nc(N[C@@H](CO)Cc2ccccc2)nc(N[C@@H]2C[C@H](C(C)(C)O)[C@@H](O)[C@H]2O)c1-c1nc2c(C)nccc2s1 [Example 5160] was tested. Which EC90 did it give?
**A.** Its EC90 is 0.5 to 5 µM.

**Q.** For Cc1nc(NCC(F)(F)C(F)(F)C(F)(F)F)nc(N[C@H]2CC[C@@H](CO)C2)c1-c1nc2c(C)nccc2s1 [Example 5166], which EC90 is on record?
**A.** Its EC90 is under 0.5 µM.

**Q.** How did the EC90 turn out when COCC(O)(COC)[C@H]1C[C@@H](Nc2nc(NCC3CC3)nc(C)c2-c2nc3c(C)nccc3s2)[C@H](O)[C@@H]1O [Example 5246] was run?
**A.** Its EC90 is under 0.5 µM.

**Q.** Which EC90 does the source give for COC[C@@H](C)Nc1nc(C)c(-c2nc3c(C)nccc3s2)c(N[C@@H]2C[C@H](C(C)(C)NS(C)(=O)=O)[C@@H](O)[C@H]2O)n1 [Example 5037] here?
**A.** The EC90 was under 0.5 µM.

**Q.** How did the EC90 turn out when COC[C@@H](C)Nc1nc(C)c(-c2nc3c(C)nccc3s2)c(N[C@@H]2C[C@H](C(C)(C)OC)[C@@H](O)[C@H]2O)n1 [Example 5274] was run?
**A.** The EC90 was under 0.5 µM.

**Q.** How did the EC90 turn out when Cc1cc(S(=O)(=O)C[C@H]2C[C@@H](Nc3nc(NCCSC(C)(C)C)nc(C)c3-c3nc4c(C)nccc4s3)[C@H](O)[C@@H]2O)ccc1F [Example 5006] was run?
**A.** The EC90 was under 0.5 µM.

**Q.** With Cc1nc(N)nc(N[C@H]2CCC[C@@H]2O)c1-c1nc2c(C)nccc2s1 [Example 5151] as the molecule, how does the EC90 read?
**A.** The EC90 was under 0.5 µM.

**Q.** Cc1nc(N)nc(N[C@@H]2C[C@H](CS(=O)(=O)c3cc(F)cc(F)c3)[C@@H](O)[C@H]2O)c1-c1nc2c(N)nccc2s1 [Example 5211] was tested. Which EC90 did it give?
**A.** Its EC90 is under 0.5 µM.

**Q.** Which EC90 does the source give for COC1(CNc2nc(C)c(-c3nc4c(C)nccc4s3)c(N[C@@H]3C[C@H](C(C)(C)O)[C@@H](O)[C@H]3O)n2)CC1 [Example 5257] here?
**A.** The EC90 was under 0.5 µM.

**Q.** For CO[C@@H](CNc1nc(C)c(-c2nc3c(C)nccc3s2)c(N[C@@H]2C[C@H](C(C)(C)O)[C@@H](O)[C@H]2O)n1)C(F)(F)F [Example 5232], which EC90 is on record?
**A.** The EC90 was under 0.5 µM.

**Q.** With Cc1nc(NCC2CC(C)C2)nc(N[C@@H]2C[C@H](CO)[C@@H](O)[C@H]2O)c1-c1nc2c(C3CC3)nccc2s1 (stereo partly drawn) [Example 5294] as the molecule, how does the EC90 read?
**A.** The EC90 was under 0.5 µM.

**Q.** Cc1nc(N[C@H](C)c2c(F)c(F)c(C)c(F)c2F)nc(N[C@@H]2C[C@H](CS(=O)(=O)c3ccc(F)cc3)[C@@H](O)[C@H]2O)c1-c1nc2c(C3CC3)nccc2s1 [Example 5203] was tested. Which EC90 did it give?
**A.** The EC90 was 0.5 to 5 µM.

**Q.** How did the EC90 turn out when Cc1nc(NC2(C)CCC2)nc(N[C@@H]2C[C@H](CS(C)(=O)=O)[C@@H](O)[C@H]2O)c1-c1nc2c(C)nccc2s1 [Example 5152] was run?
**A.** Its EC90 is under 0.5 µM.

**Q.** How did the EC90 turn out when Cc1nc(NCc2c(F)cccc2F)nc(NC2(C)CCC2)c1-c1nc2c(C)nccc2s1 [Example 5216] was run?
**A.** Its EC90 is under 0.5 µM.

**Q.** For COCCNc1nc(C)c(-c2nc3c(C4CC4)nccc3s2)c(N[C@@H]2C[C@H](C(C)(C)S(C)(=O)=O)[C@@H](O)[C@H]2O)n1 [Example 5075], which EC90 is on record?
**A.** The EC90 was under 0.5 µM.

**Q.** With CO[C@@H](CNc1nc(C)c(-c2nc3c(C)nccc3s2)c(N[C@@H]2C[C@H](CO)[C@@H](O)[C@H]2O)n1)C(F)(F)F [Example 5230] as the molecule, how does the EC90 read?
**A.** The EC90 was under 0.5 µM.

**Q.** Cc1nc(N)nc(N[C@@H]2C[C@H](CO)[C@@H](O)[C@H]2O)c1-c1nc2c(C3CC3)nccc2s1 [Example 5258] was tested. Which EC90 did it give?
**A.** Its EC90 is under 0.5 µM.

**Q.** Which EC90 does the source give for Cc1nc(NCC2(O)CC2)nc(N[C@@H]2C[C@H](CS(=O)(=O)c3cc(F)cc(F)c3)[C@@H](O)[C@H]2O)c1-c1nc2c(C)nccc2s1 [Example 5118] here?
**A.** The EC90 was under 0.5 µM.

**Q.** How did the EC90 turn out when Cc1nc(NCC(F)(F)C(F)(F)F)nc(NC2(C)CCC2)c1-c1nc2c(C)nccc2s1 [Example 5220] was run?
**A.** Its EC90 is 0.5 to 5 µM.

**Q.** Which EC90 does the source give for Cc1nc(NCC(F)(F)C(F)(F)F)nc(N[C@@H]2C[C@H](C(C)(C)O)[C@@H](O)[C@H]2O)c1-c1nc2c(N)nccc2s1 [Example 5035] here?
**A.** The EC90 was under 0.5 µM.

**Q.** With Cc1nc(NCC2CC2)nc(N[C@@H]2C[C@H](Cc3nccs3)[C@@H](O)[C@H]2O)c1-c1nc2cnccc2s1 [Example 5290] as the molecule, how does the EC90 read?
**A.** The EC90 was under 0.5 µM.

**Q.** How did the EC90 turn out when CO[C@@H](CNc1nc(C)c(-c2nc3c(C)nccc3s2)c(N[C@@H]2C[C@H](C(C)(C)O)[C@@H](O)[C@H]2O)n1)c1ccc(F)cc1 [Example 5229] was run?
**A.** The EC90 was under 0.5 µM.

**Q.** With CCOCCNc1nc(C)c(-c2nc3c(C)nccc3s2)c(N[C@@H]2C[C@H](C(O)(COC)COC)[C@@H](O)[C@H]2O)n1 [Example 5243] as the molecule, how does the EC90 read?
**A.** Its EC90 is under 0.5 µM.

**Q.** With CCO[C@H]1C[C@H](CNc2nc(C)c(-c3nc4c(C5CC5)nccc4s3)c(N[C@@H]3C[C@H](CO)[C@@H](O)[C@H]3O)n2)C1 [Example 5298] as the molecule, how does the EC90 read?
**A.** Its EC90 is under 0.5 µM.

**Q.** With CO[C@@H](CNc1nc(C)c(-c2nc3c(C)nccc3s2)c(N[C@@H]2C[C@H](CO)[C@@H](O)[C@H]2O)n1)c1ccc(F)cc1 [Example 5226] as the molecule, how does the EC90 read?
**A.** Its EC90 is under 0.5 µM.

**Q.** Cc1nc(NCCSC(C)(C)C)nc(N[C@@H]2C[C@H](C(C)(C)NS(C)(=O)=O)[C@@H](O)[C@H]2O)c1-c1nc2c(C)nccc2s1 [Example 5039] was tested. Which EC90 did it give?
**A.** The EC90 was under 0.5 µM.

**Q.** Which EC90 does the source give for Cc1nc(NCC(C)(C)C)nc(N[C@@H]2C[C@H](C(C)(C)S(=O)(=O)c3ccccc3)[C@@H](O)[C@H]2O)c1-c1nc2c(C)nccc2s1 [Example 5068] here?
**A.** The EC90 was under 0.5 µM.

**Q.** With CO[C@H]1COC[C@@H]1Nc1nc(C)c(-c2nc3c(C)nccc3s2)c(N[C@@H]2C[C@H](C(C)(C)O)[C@@H](O)[C@H]2O)n1 [Example 5218] as the molecule, how does the EC90 read?
**A.** Its EC90 is under 0.5 µM.

**Q.** Which EC90 does the source give for CO[C@H]1C[C@H](CNc2nc(C)c(-c3nc4c(C5CC5)nccc4s3)c(N[C@@H]3C[C@H](CO)[C@@H](O)[C@H]3O)n2)C1 [Example 5296] here?
**A.** Its EC90 is under 0.5 µM.
